Source: ChEMBL document CHEMBL3774345, “Synthesis of new diarylamides with pyrimidinyl pyridine scaffold and evaluation of their anti-proliferative effect on cancer cell lines” (Bioorg Med Chem Lett, 2016)

Columns and labels:
[1] = Cytotoxicity against human PC3 cells after 24 hrs by SRB assay; format: functional; conditions: PC-3, 24 h
[2] = Cytotoxicity against human SKOV3 cells assessed as cell growth at 10^-8 M after 24 hrs by SRB assay; format: functional; conditions: SK-OV-3, 24 h, read-out: Activity
HT-29 [3] = assay: Cytotoxicity against human HT-29 cells assessed as cell growth at 10^-7 M after 24 hrs by SRB assay; format: functional; conditions: HT-29, 24 h, read-out: Activity
[4] = Cytotoxicity against human SW620 cells assessed as cell growth at 10^-6 M after 24 hrs by SRB assay; format: functional; conditions: SW-620, 24 h, read-out: Activity
[5] = Cytotoxicity against human HCT15 cells assessed as cell growth at 10^-4 M after 24 hrs by SRB assay; format: functional; conditions: HCT-15, 24 h, read-out: Activity
[6] = Cytotoxicity against human OVCAR4 cells after 24 hrs by SRB assay; format: functional; conditions: OVCAR-4, 24 h
SN12C = assay: Cytotoxicity against human SN12C cells assessed as cell growth at 10^-6 M after 24 hrs by SRB assay; format: functional; conditions: read-out: Activity
[7] = Cytotoxicity against human HCT15 cells assessed as cell growth at 10^-8 M after 24 hrs by SRB assay; format: functional; conditions: HCT-15, 24 h, read-out: Activity
[8] = Cytotoxicity against human MOLT4 cells assessed as cell growth at 10^-8 M after 24 hrs by SRB assay; format: functional; conditions: MOLT-4, 24 h, read-out: Activity
[9] = Cytotoxicity against human SW620 cells assessed as cell growth at 10^-7 M after 24 hrs by SRB assay; format: functional; conditions: SW-620, 24 h, read-out: Activity
[10] = Cytotoxicity against human OVCAR4 cells assessed as cell growth at 10^-4 M after 24 hrs by SRB assay; format: functional; conditions: OVCAR-4, 24 h, read-out: Activity
[11] = Cytotoxicity against human RXF393 cells after 24 hrs by SRB assay; format: functional, cell-based; conditions: RXF 393, 24 h
786-0 = assay: Cytotoxicity against human 786-0 cells assessed as cell growth at 10^-5 M after 24 hrs by SRB assay; format: functional; conditions: 786-0, 24 h, read-out: Activity
NCI-H322M = assay: Cytotoxicity against human NCI-H322M cells assessed as cell growth at 10^-8 M after 24 hrs by SRB assay; format: functional; conditions: read-out: Activity
SR = assay: Cytotoxicity against human SR cells assessed as cell growth at 10^-6 M after 24 hrs by SRB assay; format: functional; conditions: read-out: Activity
EKVX = assay: Cytotoxicity against human EKVX cells assessed as cell growth at 10^-5 M after 24 hrs by SRB assay; format: functional; conditions: read-out: Activity
[12] = Cytotoxicity against human OVCAR4 cells assessed as cell growth at 10^-5 M after 24 hrs by SRB assay; format: functional; conditions: OVCAR-4, 24 h, read-out: Activity
NCI-H226 [13] = assay: Cytotoxicity against human NCI-H226 cells assessed as cell growth at 10^-6 M after 24 hrs by SRB assay; format: functional; conditions: NCI-H226, 24 h, read-out: Activity
M14 [14] = assay: Cytotoxicity against human M14 cells assessed as cell growth at 10^-8 M after 24 hrs by SRB assay; format: functional; conditions: M14, 24 h, read-out: Activity
[15] = Cytotoxicity against human HL-60(TB) cells assessed as cell growth at 10^-8 M after 24 hrs by SRB assay; format: functional; conditions: HL-60, 24 h, read-out: Activity
[16] = Cytotoxicity against human Hs 578T cells after 24 hrs by SRB assay; format: functional
[17] = Cytotoxicity against human IGROV1 cells assessed as cell growth at 10^-5 M after 24 hrs by SRB assay; format: functional; conditions: IGROV-1, 24 h, read-out: Activity
[18] = Cytotoxicity against human SW620 cells after 24 hrs by SRB assay; format: functional; conditions: SW-620, 24 h
[19] = Cytotoxicity against human UO31 cells assessed as cell growth at 10^-5 M after 24 hrs by SRB assay; format: functional; conditions: UO-31, 24 h, read-out: Activity
HT-29 [20] = assay: Cytotoxicity against human HT-29 cells after 24 hrs by SRB assay; format: functional; conditions: HT-29, 24 h
NCI-H226 [21] = assay: Cytotoxicity against human NCI-H226 cells assessed as cell growth at 10^-7 M after 24 hrs by SRB assay; format: functional; conditions: NCI-H226, 24 h, read-out: Activity
A498 = assay: Cytotoxicity against human A498 cells assessed as cell growth at 10^-6 M after 24 hrs by SRB assay; format: functional; conditions: A498, 24 h, read-out: Activity
NCI-H23 = assay: Cytotoxicity against human NCI-H23 cells assessed as cell growth at 10^-5 M after 24 hrs by SRB assay; format: functional; conditions: NCI-H23, 24 h, read-out: Activity
M14 [22] = assay: Cytotoxicity against human M14 cells after 24 hrs by SRB assay; format: functional, cell-based; conditions: M14, 24 h
U-251 = assay: Cytotoxicity against human U251 cells assessed as cell growth at 10^-6 M after 24 hrs by SRB assay; format: functional; conditions: U-251, 24 h, read-out: Activity
[23] = Cytotoxicity against human COLO205 cells assessed as cell growth at 10^-8 M after 24 hrs by SRB assay; format: functional; conditions: COLO 205, 24 h, read-out: Activity
[24] = Cytotoxicity against human SNB19 cells assessed as cell growth at 10^-6 M after 24 hrs by SRB assay; format: functional; conditions: SNB-19, 24 h, read-out: Activity
[25] = Cytotoxicity against human SW620 cells assessed as cell growth at 10^-5 M after 24 hrs by SRB assay; format: functional; conditions: SW-620, 24 h, read-out: Activity
[26] = Cytotoxicity against human UACC62 cells assessed as cell growth at 10^-5 M after 24 hrs by SRB assay; format: functional; conditions: UACC-62, 24 h, read-out: Activity
[27] = Cytotoxicity against human OVCAR8 cells assessed as growth inhibition at 10 uM after 24 hrs by SRB assay; format: functional; conditions: OVCAR-8, 24 h, read-out: GI
[28] = read-out: LC50 (the source's name)
[29] = read-out: pLC50 (the source's name) (converted)

Structure (SMILES): O=C(Nc1cc(-c2cccnc2)nc(NCCCN2CCOCC2)n1)c1cc(Br)cc(C(F)(F)F)c1
- GI50 ([1]; read-out: GI50): 4.03 µM
- CC50 [1, 28]: 42.7 µM
- TGI ([1]; read-out: TGI): 15.7 µM
- GI50 ([1]; read-out: pGI50 (converted)): 4.07 µM
- CC50 [1, 29]: 42.7 µM
- TGI ([1]; read-out: pTGI (converted)): 15.8 µM
- growth at 0.01 µM [2]: 97%
- growth at 0.1 µM (HT-29 [3]): 102%
- growth at 1 µM [4]: 95%
- growth at 100 µM [5]: -96%
- GI50 ([6]; read-out: GI50): 3.26 µM
- CC50 [6, 28]: 39.9 µM
- TGI ([6]; read-out: TGI): 14.5 µM
- GI50 ([6]; read-out: pGI50 (converted)): 3.24 µM
- CC50 [6, 29]: 39.8 µM
- TGI ([6]; read-out: pTGI (converted)): 14.5 µM
- growth at 1 µM (SN12C): 101%
- growth at 0.01 µM [7]: 91%
- growth at 0.01 µM [8]: 99%
- growth at 0.1 µM [9]: 96%
- growth at 100 µM [10]: -95%
- IC50 [11]: 1.8 µM
- GI50 ([11]; read-out: GI50): 1.8 µM
- CC50 [11, 28]: 7.23 µM
- TGI ([11]; read-out: TGI): 3.61 µM
- GI50 ([11]; read-out: pGI50 (converted)): 1.82 µM
- CC50 [11, 29]: 7.24 µM
- TGI ([11]; read-out: pTGI (converted)): 3.63 µM
- growth at 10 µM (786-0): -80%
- growth at 0.01 µM (NCI-H322M): 98%
- growth at 1 µM (SR): 85%
- growth at 10 µM (EKVX): 17%
- growth at 10 µM [12]: 18%
- growth at 1 µM (NCI-H226 [13]): 84%
- growth at 0.01 µM (M14 [14]): 94%
- growth at 0.01 µM [15]: 100%
- GI50 ([16]; read-out: GI50): 2.71 µM
- CC50 [16, 28]: > 100 µM
- TGI ([16]; read-out: TGI): 8.51 µM
- GI50 ([16]; read-out: pGI50 (converted)): 2.69 µM
- CC50 [16, 29]: 100 µM
- TGI ([16]; read-out: pTGI (converted)): 8.51 µM
- growth at 10 µM [17]: 29%
- GI50 ([18]; read-out: GI50): 2.25 µM
- CC50 [18, 28]: 20.1 µM
- TGI ([18]; read-out: TGI): 5.48 µM
- GI50 ([18]; read-out: pGI50 (converted)): 2.24 µM
- CC50 [18, 29]: 20 µM
- TGI ([18]; read-out: pTGI (converted)): 5.62 µM
- growth at 10 µM [19]: -61%
- GI50 (HT-29 [20]; read-out: GI50): 2.12 µM
- CC50 (HT-29 [20]; [28]): 16.1 µM
- TGI (HT-29 [20]; read-out: TGI): 4.95 µM
- GI50 (HT-29 [20]; read-out: pGI50 (converted)): 2.14 µM
- CC50 (HT-29 [20]; [29]): 16.2 µM
- TGI (HT-29 [20]; read-out: pTGI (converted)): 4.9 µM
- growth at 0.1 µM (NCI-H226 [21]): 93%
- growth at 1 µM (A498): 92%
- growth at 10 µM (NCI-H23): 18%
- GI50 (M14 [22]): 1.66 µM
- CC50 (M14 [22]; [28]): 6.59 µM
- TGI (M14 [22]; read-out: TGI): 3.32 µM
- CC50 (M14 [22]; [29]): 6.61 µM
- TGI (M14 [22]; read-out: pTGI (converted)): 3.31 µM
- growth at 1 µM (U-251): 98%
- growth at 0.01 µM [23]: 104%
- growth at 1 µM [24]: 105%
- growth at 10 µM [25]: -34%
- growth at 10 µM [26]: -50%

Structure (SMILES): COCCCNc1nc(NC(=O)c2cc(OC)cc(OC)c2)cc(-c2cccnc2)n1
- inhibition of growth at 10 µM [27]: 20.7%
